Data on 5 compounds can be found in EP4722207A1, “OXOISOINDOLINYL-SUBSTITUTED TETRAHYDROPYRIMIDINEDIONE DERIVATIVE AND USE THEREOF” (Gluetacs Therapeutics (Shanghai) Co., Ltd., priority 2023, dated 2024).

The target of experiment [1] is T1, IKZF3 (Homo sapiens, UniProt Q96SW2+Q9UKT9).
T1 construct: effects of the compounds of the present disclosure on the expression of target proteins in cells; endogenous in cells; host or cells: human PBMCs (hPBMCs)
Nature of the experiment: Western-blot assay, substrate protein degradation in hPBMCs: IKZF3. The experiment is classed as cell-based. The conditions noted are these: for IKZF3 substrate protein remaining %: compounds at 50 nM and 500 nM, 24 hours.

The test system of experiment [2] is MM.1S. Nature of the experiment: Cell viability assay (CellTiter-Meiluncell Luminescent), tumor cell proliferation, MM.1S. The conditions noted are these: Homo sapiens, MM1.S, 96 h, read-out: inhibitory activity (IC50, nM) against tumor cells proliferation, MM.1S.
Experiment [3] has as its target T2, GSPT1 (Homo sapiens, UniProt P15170+Q96SW2).
T2 construct: effects of the compounds of the present disclosure on the expression of target proteins in cells; endogenous in cells; host or cells: human PBMCs (hPBMCs)
Nature of the experiment: Western-blot assay, substrate protein degradation in hPBMCs: GSPT1. The experiment is classed as cell-based. The conditions noted are these: for GSPT1 substrate protein remaining %: compounds at 50 nM and 500 nM, 24 hours.

Experiment [4] deals with T3, IKZF2 (Homo sapiens, UniProt Q96SW2+Q9UKS7).
T3 construct: effects of the compounds of the present disclosure on the expression of target proteins in cells; endogenous in cells; host or cells: human PBMCs (hPBMCs)
T3 sequence (Q9UKS7 whole entry): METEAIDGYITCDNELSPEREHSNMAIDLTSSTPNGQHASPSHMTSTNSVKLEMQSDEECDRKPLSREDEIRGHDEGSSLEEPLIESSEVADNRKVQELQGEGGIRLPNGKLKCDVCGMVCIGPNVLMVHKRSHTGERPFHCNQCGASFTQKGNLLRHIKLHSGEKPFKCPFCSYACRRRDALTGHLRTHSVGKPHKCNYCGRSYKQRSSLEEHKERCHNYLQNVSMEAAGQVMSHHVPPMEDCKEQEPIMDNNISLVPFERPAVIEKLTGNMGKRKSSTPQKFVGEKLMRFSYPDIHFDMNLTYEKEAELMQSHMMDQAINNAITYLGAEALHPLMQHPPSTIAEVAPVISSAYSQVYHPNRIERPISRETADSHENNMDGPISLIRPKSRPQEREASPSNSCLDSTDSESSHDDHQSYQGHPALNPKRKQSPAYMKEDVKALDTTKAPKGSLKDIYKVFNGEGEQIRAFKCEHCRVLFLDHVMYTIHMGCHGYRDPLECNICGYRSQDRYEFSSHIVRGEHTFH
T3 sequence (Q96SW2 whole entry): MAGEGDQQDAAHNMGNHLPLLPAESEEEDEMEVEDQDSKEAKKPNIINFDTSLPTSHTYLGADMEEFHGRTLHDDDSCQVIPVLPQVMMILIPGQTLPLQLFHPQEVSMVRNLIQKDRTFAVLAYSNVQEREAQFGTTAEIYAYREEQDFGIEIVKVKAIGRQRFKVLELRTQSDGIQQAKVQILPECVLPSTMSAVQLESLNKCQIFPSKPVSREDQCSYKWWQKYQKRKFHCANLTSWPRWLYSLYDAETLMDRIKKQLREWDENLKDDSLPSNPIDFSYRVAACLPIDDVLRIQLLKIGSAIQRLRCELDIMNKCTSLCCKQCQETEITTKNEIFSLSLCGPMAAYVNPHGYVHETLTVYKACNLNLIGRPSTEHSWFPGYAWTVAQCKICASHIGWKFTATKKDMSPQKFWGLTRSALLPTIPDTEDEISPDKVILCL
T3 sequence (Q16531 whole entry partner): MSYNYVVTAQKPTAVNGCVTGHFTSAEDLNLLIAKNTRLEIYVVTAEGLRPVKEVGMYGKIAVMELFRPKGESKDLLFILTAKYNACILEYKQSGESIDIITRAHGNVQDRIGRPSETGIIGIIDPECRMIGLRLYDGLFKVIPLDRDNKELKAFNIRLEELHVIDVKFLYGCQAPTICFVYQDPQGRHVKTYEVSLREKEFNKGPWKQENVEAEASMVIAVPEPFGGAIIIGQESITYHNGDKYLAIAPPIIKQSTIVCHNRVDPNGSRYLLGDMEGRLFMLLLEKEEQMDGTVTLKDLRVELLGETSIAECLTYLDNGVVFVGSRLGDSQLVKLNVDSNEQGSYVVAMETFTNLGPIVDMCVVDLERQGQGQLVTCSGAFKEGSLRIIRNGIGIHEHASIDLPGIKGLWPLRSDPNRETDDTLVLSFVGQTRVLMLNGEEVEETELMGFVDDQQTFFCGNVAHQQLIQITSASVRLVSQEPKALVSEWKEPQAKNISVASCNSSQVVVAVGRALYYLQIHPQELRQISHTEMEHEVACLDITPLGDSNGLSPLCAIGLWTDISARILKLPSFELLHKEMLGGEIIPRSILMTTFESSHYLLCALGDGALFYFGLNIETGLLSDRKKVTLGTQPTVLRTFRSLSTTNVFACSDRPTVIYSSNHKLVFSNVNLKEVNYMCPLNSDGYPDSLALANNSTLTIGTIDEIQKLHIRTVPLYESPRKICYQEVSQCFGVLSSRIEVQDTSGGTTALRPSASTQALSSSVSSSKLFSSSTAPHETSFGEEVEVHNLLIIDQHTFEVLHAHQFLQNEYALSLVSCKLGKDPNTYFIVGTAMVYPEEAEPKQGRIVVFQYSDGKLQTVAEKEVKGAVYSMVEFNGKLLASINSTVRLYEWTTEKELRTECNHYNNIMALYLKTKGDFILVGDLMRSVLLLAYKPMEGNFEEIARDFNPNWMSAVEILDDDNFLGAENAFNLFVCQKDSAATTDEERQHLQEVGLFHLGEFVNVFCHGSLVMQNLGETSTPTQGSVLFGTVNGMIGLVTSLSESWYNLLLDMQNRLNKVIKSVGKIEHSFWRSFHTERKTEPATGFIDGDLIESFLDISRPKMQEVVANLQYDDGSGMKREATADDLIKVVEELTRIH
The experiment is described as follows: Western-blot assay, substrate protein degradation in hPBMCs: IKZF2. The experiment is classed as cell-based. Conditions: for IKZF2 substrate protein remaining %: compounds at 50 nM and 500 nM, 24 hours.

For experiment [5], the target named is T4, CK1α (Homo sapiens, UniProt P48729+Q96SW2).
T4 construct: effects of the compounds of the present disclosure on the expression of target proteins in cells; endogenous in cells; host or cells: human PBMCs (hPBMCs)
T4 sequence (P48729 whole entry): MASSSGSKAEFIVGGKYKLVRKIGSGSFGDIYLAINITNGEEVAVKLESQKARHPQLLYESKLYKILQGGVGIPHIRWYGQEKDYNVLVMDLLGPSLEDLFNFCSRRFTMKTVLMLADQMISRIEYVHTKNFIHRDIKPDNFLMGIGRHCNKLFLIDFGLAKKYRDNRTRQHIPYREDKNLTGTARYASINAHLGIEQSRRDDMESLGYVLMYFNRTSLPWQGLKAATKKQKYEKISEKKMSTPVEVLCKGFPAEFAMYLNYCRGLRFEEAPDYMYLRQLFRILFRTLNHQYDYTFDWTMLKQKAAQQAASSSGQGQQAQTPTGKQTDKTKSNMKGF
T4 sequence (Q96SW2 whole entry): as the sequence (Q96SW2 whole entry) above
T4 sequence (Q16531 whole entry partner): as the sequence (Q16531 whole entry partner) above
Nature of the experiment: Western-blot assay, substrate protein degradation in hPBMCs: CK1α. It is filed as cell-based. The conditions noted are these: for CK1α substrate protein remaining %: compounds at 50 nM and 500 nM, 24 hours.

Experiment [6] has as its target T5, IKZF1 (Homo sapiens, UniProt Q13422+Q96SW2).
T5 construct: effects of the compounds of the present disclosure on the expression of target proteins in cells; endogenous in cells; host or cells: human PBMCs (hPBMCs)
The experiment is described as follows: Western-blot assay, substrate protein degradation in hPBMCs: IKZF1. It is filed as cell-based. Conditions: for IKZF1 substrate protein remaining %: compounds at 50 nM and 500 nM, 24 hours.

Experiment [7] has as its target T6, WEE1 (Homo sapiens, UniProt P30291+Q96SW2).
T6 construct: effects of the compounds of the present disclosure on the expression of target proteins in cells; endogenous in cells; host or cells: human PBMCs (hPBMCs)
The experiment is described as follows: Western-blot assay, substrate protein degradation in hPBMCs: WEE1. It is filed as cell-based. The conditions noted are these: for WEE1 substrate protein remaining %: compounds at 50 nM and 500 nM, 24 hours.

Experiment [8] deals with H292. The experiment is described as follows: Cell viability assay (CellTiter-Meiluncell Luminescent), tumor cell proliferation, H292. The conditions noted are these: Homo sapiens, NCI-H292, 96 h; for inhibition at 0.01 µM: read-out: Inhibition Rate at 10 nM (%); for inhibition at 0.5 µM: read-out: Inhibition Rate at 500 nM (%).
In experiment [9] the test system is MDA-MB-231. The experiment is described as follows: Cell viability assay (CellTiter-Meiluncell Luminescent), tumor cell proliferation, MDA-MB-231. The conditions noted are these: Homo sapiens, MDA-MB-231, 96 h; for inhibition at 0.01 µM: read-out: Inhibition Rate at 10 nM (%); for inhibition at 0.5 µM: read-out: Inhibition Rate at 500 nM (%).
The test system of experiment [10] is MV-4-11. The experiment is described as follows: Cell viability assay (CellTiter-Meiluncell Luminescent), tumor cell proliferation, MV-4-11. The conditions noted are these: Homo sapiens, MV4-11, 96 h; for inhibition at 0.01 µM: read-out: Inhibition Rate at 10 nM (%); for inhibition at 0.5 µM: read-out: Inhibition Rate at 500 nM (%).
Where [11] appears, read: 24 hours of compound treatment, 50 nM and 500 nM.

T1 sequence (Q9UKT9 whole entry): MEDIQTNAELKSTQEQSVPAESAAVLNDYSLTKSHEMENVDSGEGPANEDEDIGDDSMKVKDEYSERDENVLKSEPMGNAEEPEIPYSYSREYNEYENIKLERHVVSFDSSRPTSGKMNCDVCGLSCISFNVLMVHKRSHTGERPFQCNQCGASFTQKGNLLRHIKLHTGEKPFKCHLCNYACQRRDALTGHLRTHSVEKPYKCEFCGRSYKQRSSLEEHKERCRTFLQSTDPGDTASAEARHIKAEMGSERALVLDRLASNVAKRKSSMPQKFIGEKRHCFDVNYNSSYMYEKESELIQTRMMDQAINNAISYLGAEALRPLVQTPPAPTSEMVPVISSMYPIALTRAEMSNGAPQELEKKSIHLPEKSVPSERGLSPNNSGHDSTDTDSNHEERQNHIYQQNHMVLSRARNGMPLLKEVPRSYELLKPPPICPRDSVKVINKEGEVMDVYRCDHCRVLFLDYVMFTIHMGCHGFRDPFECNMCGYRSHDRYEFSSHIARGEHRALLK
T1 sequence (Q96SW2 whole entry): as the sequence (Q96SW2 whole entry) above
T1 sequence (Q16531 whole entry partner): as the sequence (Q16531 whole entry partner) above
T5 sequence (Q13422 whole entry): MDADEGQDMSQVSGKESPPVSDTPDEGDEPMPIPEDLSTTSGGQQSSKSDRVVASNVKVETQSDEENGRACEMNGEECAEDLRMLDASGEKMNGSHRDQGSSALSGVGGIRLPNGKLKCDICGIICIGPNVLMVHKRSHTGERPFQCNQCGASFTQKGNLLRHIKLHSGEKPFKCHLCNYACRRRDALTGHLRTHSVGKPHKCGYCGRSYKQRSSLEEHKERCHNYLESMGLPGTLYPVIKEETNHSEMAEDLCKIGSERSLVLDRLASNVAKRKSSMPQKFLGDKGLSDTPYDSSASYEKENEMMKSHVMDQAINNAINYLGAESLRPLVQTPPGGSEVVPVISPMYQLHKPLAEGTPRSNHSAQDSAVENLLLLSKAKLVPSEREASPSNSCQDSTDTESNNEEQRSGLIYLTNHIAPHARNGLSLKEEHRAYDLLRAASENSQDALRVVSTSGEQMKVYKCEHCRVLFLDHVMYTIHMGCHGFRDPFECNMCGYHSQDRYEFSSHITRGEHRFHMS
T5 sequence (Q96SW2 whole entry): as the sequence (Q96SW2 whole entry) above
T5 sequence (Q16531 whole entry partner): as the sequence (Q16531 whole entry partner) above
T2 sequence (P15170 whole entry): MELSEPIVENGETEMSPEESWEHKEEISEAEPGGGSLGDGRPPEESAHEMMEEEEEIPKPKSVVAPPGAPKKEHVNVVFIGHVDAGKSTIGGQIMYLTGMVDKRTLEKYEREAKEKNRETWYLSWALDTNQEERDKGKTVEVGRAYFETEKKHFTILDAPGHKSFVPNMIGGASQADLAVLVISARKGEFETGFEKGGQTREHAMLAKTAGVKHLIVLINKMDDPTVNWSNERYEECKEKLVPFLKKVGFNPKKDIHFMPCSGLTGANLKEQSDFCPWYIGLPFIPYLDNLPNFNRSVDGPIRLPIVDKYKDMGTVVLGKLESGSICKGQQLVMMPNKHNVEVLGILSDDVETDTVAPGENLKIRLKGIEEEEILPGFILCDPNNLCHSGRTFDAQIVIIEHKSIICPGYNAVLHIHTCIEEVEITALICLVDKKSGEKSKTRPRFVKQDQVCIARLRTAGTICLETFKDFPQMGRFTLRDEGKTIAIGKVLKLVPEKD
T2 sequence (Q96SW2 whole entry): as the sequence (Q96SW2 whole entry) above
T2 sequence (Q16531 whole entry partner): as the sequence (Q16531 whole entry partner) above

With `Cc1ccc(Sc2ccccc2N2CCN(Cc3ccc4c(c3)CN(N3CCC(=O)NC3=O)C4=O)CC2)c(C)c1` [GT-04867, 1-(5-((4-(2-((2,4-dimethylphenyl)thio)phenyl)piperazin-1-yl)methyl)-1-oxoisoindolin-2-yl)dihydropyrimidine-2,4(1H,3H)-dione], in experiment [1], the “IKZF3 substrate protein remaining %” value is “B ("B" is defined as 80%< substrate protein remaining %≤ 100%)”. Also, the IC50 in experiment [2] was 500 to 1000 nM. Also, the “GSPT1 substrate protein remaining %” value in experiment [3] is reported as “A ("A" is defined as 0% ≤ substrate protein remaining % ≤ 80%)”. The “IKZF2 substrate protein remaining %” value in experiment [4] is on record as “B ("B" is defined as 80%< substrate protein remaining %≤ 100%)”. For the same compound, the “CK1α substrate protein remaining %” value in experiment [5] is given as “B ("B" is defined as 80%< substrate protein remaining %≤ 100%)”. The “IKZF1 substrate protein remaining %” value in [6] is “A ("A" is defined as 0% ≤ substrate protein remaining % ≤ 80%)”. In experiment [7], the “WEE1 substrate protein remaining %” value is listed as “B ("B" is defined as 80%< substrate protein remaining %≤ 100%)”.

With `O=C1CCN(N2Cc3cc(CN4CC=C(c5ccoc5)CC4)ccc3C2=O)C(=O)N1` [GT-04875, 1-(5-((4-(furan-3-yl)-3,6-dihydropyridin-1(2H)-yl)methyl)-1-oxoisoindolin-2-yl)dihydropyrimidine-2,4(1H,3H)-dione], the “IKZF3 substrate protein remaining %” value in [1] was “B ("B" is defined as 80%< substrate protein remaining %≤ 100%)”. In addition, the IC50 in [2] lay within 300 to 500 nM. In addition, the “GSPT1 substrate protein remaining %” value in [3] is given as “A ("A" is defined as 0% ≤ substrate protein remaining % ≤ 80%)”. In addition, the “IKZF2 substrate protein remaining %” value in experiment [4] is “B ("B" is defined as 80%< substrate protein remaining %≤ 100%)”. Further, the “CK1α substrate protein remaining %” value in experiment [5] is “B ("B" is defined as 80%< substrate protein remaining %≤ 100%)”. For the same compound, in [6], the “IKZF1 substrate protein remaining %” value is reported as “B ("B" is defined as 80%< substrate protein remaining %≤ 100%)”. Also, the “WEE1 substrate protein remaining %” value in experiment [7] is on record as “A ("A" is defined as 0% ≤ substrate protein remaining % ≤ 80%)”.

In the case of `O=C1CCN(N2Cc3cc(CNC45CC6CC(CC(C6)C4)C5)ccc3C2=O)C(=O)N1` [GT-07806, 1-(5-((((3s,5s,7s)-adamantan-1-yl)amino)methyl)-1-oxoisoindolin-2-yl)dihydropyrimidine-2,4(1H,3H)-dione], the inhibition at 0.01 µM in experiment [8] is 15 to 20%; in experiment [9] it was 18 to 25%; in [10] it was 5 to 10%. Also, the inhibition at 0.5 µM in experiment [8] lay in the range of 15 to 20%; in [9], 18 to 25%; in [10] it was 25 to 30%.

In the case of `O=C1CCN(N2C(=O)c3ccc(CN4CC(=C5CCOc6cc(F)ccc65)C4)cc3C2=O)C(=O)N1` [GT-07888, 2-(2,4-dioxotetrahydropyrimidin-1(2H)-yl)-5-((3-(7-fluorochroman-4-ylidene)azetidin-1-yl)methyl)isoindoline-1,3-dione], the results for the inhibition at 0.01 µM in [8], in experiment [9] and in experiment [10] were 5 to 10%, 18 to 25% and 40 to 60%, respectively. The inhibition at 0.5 µM in experiment [8] is 10 to 15%; in experiment [9], 18 to 25%; in experiment [10], 40 to 60%.

With `O=C1CCN(N2Cc3cc(CN4CCN(c5ncnc6sc(Br)cc56)CC4)ccc3C2=O)C(=O)N1` [GT-08063, 1-(5-((4-(6-bromothieno[2,3-d]pyrimidin-4-yl)piperazin-1-yl)methyl)-1-oxoisoindolin-2-yl)dihydropyrimidine-2,4(1H,3H)-dione], the inhibition at 0.01 µM is 20 to 40% in experiment [8], 15 to 18% in experiment [9] and 18 to 25% in [10]. The values for the inhibition at 0.5 µM in experiment [8], in experiment [9] and in experiment [10] were 20 to 40%, 15 to 18% and 5 to 10%, respectively. Further, the “substrate protein remaining % IKZF3” value in [1] (setting [11]) was “A (0% ≤ substrate protein remaining % ≤ 80%)”. Besides, the “substrate protein remaining % GSPT1” value in [3] (setting [11]) was “B (80%< substrate protein remaining %≤ 100%)”. Moreover, the “substrate protein remaining % IKZF2” value in [4] (setting [11]) was “A (0% ≤ substrate protein remaining % ≤ 80%)”. Also, the “substrate protein remaining % CK1α” value in experiment [5] (setting [11]) is “B (80%< substrate protein remaining %≤ 100%)”. In addition, the “substrate protein remaining % IKZF1” value in [6] (setting [11]) is “B (80%< substrate protein remaining %≤ 100%)”. In addition, the “substrate protein remaining % WEE1” value in experiment [7] (setting [11]) is given as “B (80%< substrate protein remaining %≤ 100%)”.
